From the supplement of paper PMC4862054

Key:
Assay in all cases: normalised viability (% of control), CellTiter-Blue; higher = more viable cells (about 100 = DMSO control)
Conditions in all cases: incubation time: 72 h
CAL-85-1 [1] = test system: CAL-85-1
Method in brief: (§1)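 After 72 h on compound-loaded 384-well plates, breast cancer cell lines received 2.5 µl CellTiter-Blue reagent for 2 h at 37 °C. Fluorescence at 560/590 nm was scaled per plate so that vehicle was 100 and a positive kill control was 0. The value stands for normalised viability at a single listed concentration of the series.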

SK-BR-3 [2] = test system: SK-BR-3
Method in brief: as §1

MDA-MB-436 [3] = test system: MDA-MB-436
Method in brief: as §1

BT-549 [4] = test system: BT-549
Method in brief: as §1

CAL-148 [5] = test system: CAL-148
Method in brief: as §1

Hs578T [6] = test system: Hs578T
Method in brief: as §1

MDA-MB-453 [7] = test system: MDA-MB-453
Method in brief: as §1

CAL-120 [8] = test system: CAL-120
Method in brief: as §1

MFM-223 [9] = test system: MFM-223
Method in brief: as §1

MDA-MB-468 = test system: MDA-MB-468
Description: (§2)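 DSRT, CellTiter-Blue viability, 72 h incubation. Signal is normalised to DMSO and benzethonium chloride controls. Value is the normalised response at dose 3.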

CAL-85-1 [10] = test system: CAL-85-1; remark: listed apart in the source
Description: as §2

SK-BR-3 [11] = test system: SK-BR-3; remark: listed apart in the source
Description: as §2

MDA-MB-436 [12] = test system: MDA-MB-436; remark: listed apart in the source
Description: as §2

BT-549 [13] = test system: BT-549; remark: listed apart in the source
Description: as §2

HCC1937 = test system: HCC1937
Description: as §2

CAL-148 [14] = test system: CAL-148; remark: listed apart in the source
Description: as §2

HDQ-P1 = test system: HDQ-P1
Description: as §2

CAL-51 = test system: CAL-51
Description: as §2

Hs578T [15] = test system: Hs578T; remark: listed apart in the source
Description: as §2

BT-474 = test system: BT-474
Description: as §2

MDA-MB-453 [16] = test system: MDA-MB-453; remark: listed apart in the source
Description: as §2

CAL-120 [17] = test system: CAL-120; remark: listed apart in the source
Description: as §2

HCC1143 = test system: HCC1143
Description: as §2

DU-4475 = test system: DU-4475
Description: as §2

HCC1599 = test system: HCC1599
Description: as §2

MDA-MB-231 = test system: MDA-MB-231
Description: as §2

MFM-223 [18] = test system: MFM-223; remark: listed apart in the source
Description: as §2

CO[C@@]12[C@H](COC(N)=O)C3=C(C(=O)C(C)=C(N)C3=O)N1C[C@@H]1N[C@@H]12 [Mitomycin C]
Conditions | normalised viability [%]
BT-474, 100 nM | 127
BT-549 [4], 10 nM | 85
BT-549 [4], 1000 nM | 84.9
BT-549 [4], 10000 nM | 14.1
BT-549 [13], 100 nM | 74.4
CAL-51, 10 nM | 108
CAL-85-1 [1], 3 nM | 104
CAL-85-1 [1], 30 nM | 98.4
CAL-85-1 [1], 100 nM | 105
CAL-85-1 [10], 10 nM | 104
CAL-120 [8], 10 nM | 92.4
CAL-120 [8], 1000 nM | 91.5
CAL-120 [8], 10000 nM | 40.4
CAL-120 [17], 100 nM | 93.8
CAL-148 [5], 3 nM | 97.3
CAL-148 [5], 30 nM | 102
CAL-148 [5], 100 nM | 100
CAL-148 [14], 10 nM | 101
DU-4475, 10 nM | 103
HCC1143, 100 nM | 83.7
HCC1599, 100 nM | 108
HCC1937, 100 nM | 69.2
HDQ-P1, 10 nM | 103
Hs578T [6], 10 nM | 113
Hs578T [6], 1000 nM | 98.9
Hs578T [6], 10000 nM | 5.32
Hs578T [15], 100 nM | 97.1
MDA-MB-231, 100 nM | 107
MDA-MB-436 [3], 10 nM | 100
MDA-MB-436 [3], 1000 nM | 76.2
MDA-MB-436 [3], 10000 nM | 17.6
MDA-MB-436 [12], 100 nM | 96.5
MDA-MB-453 [7], 3 nM | 124
MDA-MB-453 [7], 30 nM | 94.5
MDA-MB-453 [7], 100 nM | 91.4
MDA-MB-453 [16], 10 nM | 87.6
MDA-MB-468, 100 nM | 92
MFM-223 [9], 10 nM | 96.9
MFM-223 [9], 1000 nM | 96.2
MFM-223 [9], 10000 nM | 8.74
MFM-223 [18], 100 nM | 89.1
SK-BR-3 [2], 10 nM | 99.2
SK-BR-3 [2], 1000 nM | 61.5
SK-BR-3 [2], 10000 nM | 10.4
SK-BR-3 [11], 100 nM | 91.9

CC(O)(CS(=O)(=O)c1ccc(F)cc1)C(=O)Nc1ccc(C#N)c(C(F)(F)F)c1 (stereo not given) [Bicalutamide]
Conditions | normalised viability [%]
BT-474, 100 nM | 115
BT-549 [4], 10 nM | 87
BT-549 [4], 1000 nM | 94.3
BT-549 [4], 10000 nM | 87.2
BT-549 [13], 100 nM | 84.5
CAL-51, 10 nM | 105
CAL-85-1 [1], 3 nM | 93.7
CAL-85-1 [1], 30 nM | 97.3
CAL-85-1 [1], 100 nM | 104
CAL-85-1 [10], 10 nM | 110
CAL-120 [8], 10 nM | 96
CAL-120 [8], 1000 nM | 107
CAL-120 [8], 10000 nM | 119
CAL-120 [17], 100 nM | 97.2
CAL-148 [5], 3 nM | 101
CAL-148 [5], 30 nM | 100
CAL-148 [5], 100 nM | 102
CAL-148 [14], 10 nM | 109
DU-4475, 10 nM | 103
HCC1143, 100 nM | 99.8
HCC1599, 100 nM | 83.7
HCC1937, 100 nM | 83
HDQ-P1, 10 nM | 121
Hs578T [6], 10 nM | 108
Hs578T [6], 1000 nM | 112
Hs578T [6], 10000 nM | 113
Hs578T [15], 100 nM | 93.6
MDA-MB-231, 100 nM | 105
MDA-MB-436 [3], 10 nM | 90
MDA-MB-436 [3], 1000 nM | 96.2
MDA-MB-436 [3], 10000 nM | 96.7
MDA-MB-436 [12], 100 nM | 98.7
MDA-MB-453 [7], 3 nM | 114
MDA-MB-453 [7], 30 nM | 89.2
MDA-MB-453 [7], 100 nM | 95.9
MDA-MB-453 [16], 10 nM | 101
MDA-MB-468, 100 nM | 94.6
MFM-223 [9], 10 nM | 89.2
MFM-223 [9], 1000 nM | 91.8
MFM-223 [9], 10000 nM | 94
MFM-223 [18], 100 nM | 87
SK-BR-3 [2], 10 nM | 104
SK-BR-3 [2], 1000 nM | 107
SK-BR-3 [2], 10000 nM | 114
SK-BR-3 [11], 100 nM | 94.1

CCNC(=O)c1noc(-c2cc(C(C)C)c(O)cc2O)c1-c1ccc(CN2CCOCC2)cc1 [NVP-AUY922]
Conditions | normalised viability [%]
BT-474, 10 nM | 86.1
BT-549 [4], 1 nM | 113
BT-549 [4], 100 nM | 29.3
BT-549 [4], 1000 nM | 31.7
BT-549 [13], 10 nM | 42.2
CAL-51, 1 nM | 102
CAL-85-1 [1], 0.3 nM | 101
CAL-85-1 [1], 3 nM | 96.8
CAL-85-1 [1], 10 nM | 102
CAL-85-1 [10], 1 nM | 96
CAL-120 [8], 1 nM | 101
CAL-120 [8], 100 nM | 18.9
CAL-120 [8], 1000 nM | 17.1
CAL-120 [17], 10 nM | 46.6
CAL-148 [5], 0.3 nM | 98.7
CAL-148 [5], 3 nM | 108
CAL-148 [5], 10 nM | 112
CAL-148 [14], 1 nM | 103
DU-4475, 1 nM | 115
HCC1143, 10 nM | 100
HCC1599, 10 nM | 112
HCC1937, 10 nM | 37.8
HDQ-P1, 1 nM | 132
Hs578T [6], 1 nM | 110
Hs578T [6], 100 nM | 44.1
Hs578T [6], 1000 nM | 37.2
Hs578T [15], 10 nM | 37.3
MDA-MB-231, 10 nM | 56.5
MDA-MB-436 [3], 1 nM | 111
MDA-MB-436 [3], 100 nM | 11.2
MDA-MB-436 [3], 1000 nM | 19.9
MDA-MB-436 [12], 10 nM | 58.5
MDA-MB-453 [7], 0.3 nM | 124
MDA-MB-453 [7], 3 nM | 98
MDA-MB-453 [7], 10 nM | 83.2
MDA-MB-453 [16], 1 nM | 119
MDA-MB-468, 10 nM | 51.6
MFM-223 [9], 1 nM | 97.4
MFM-223 [9], 100 nM | 26.1
MFM-223 [9], 1000 nM | 25.4
MFM-223 [18], 10 nM | 41.1
SK-BR-3 [2], 1 nM | 106
SK-BR-3 [2], 100 nM | 16.2
SK-BR-3 [2], 1000 nM | 16.8
SK-BR-3 [11], 10 nM | 34.9
